The text below walks through data of ChEMBL document CHEMBL6109182, “Regio- and Stereoselective Synthesis of Nitro-fatty Acids as NRF2 Pathway Activators Working under Ambient or Hypoxic Conditions” (J Med Chem, 2025).

Structures are written as SMILES. Active and inactive are the calls of the source. No cut-off for these calls is given here.

Test [1] addresses T1, Nuclear factor erythroid 2-related factor 2 (Mus musculus) (UniProt Q60795).
T1 sequence (whole entry): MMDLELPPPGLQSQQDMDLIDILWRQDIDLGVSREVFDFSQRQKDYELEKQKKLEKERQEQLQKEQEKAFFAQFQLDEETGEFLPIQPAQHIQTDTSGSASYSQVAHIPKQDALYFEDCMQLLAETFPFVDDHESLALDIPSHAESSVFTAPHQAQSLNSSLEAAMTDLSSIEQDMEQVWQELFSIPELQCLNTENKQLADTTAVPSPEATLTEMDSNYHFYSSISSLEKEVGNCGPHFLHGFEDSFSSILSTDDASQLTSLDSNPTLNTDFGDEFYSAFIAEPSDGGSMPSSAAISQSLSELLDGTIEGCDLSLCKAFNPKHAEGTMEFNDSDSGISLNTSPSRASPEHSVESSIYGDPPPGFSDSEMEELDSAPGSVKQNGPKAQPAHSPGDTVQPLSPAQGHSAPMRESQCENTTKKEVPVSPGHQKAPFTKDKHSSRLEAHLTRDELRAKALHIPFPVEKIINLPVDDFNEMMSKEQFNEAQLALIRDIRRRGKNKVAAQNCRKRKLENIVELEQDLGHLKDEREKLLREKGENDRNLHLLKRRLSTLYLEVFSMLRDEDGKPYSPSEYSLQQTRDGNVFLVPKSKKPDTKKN
Description: Activation of NRF2 in C57BL/6 mouse bone marrow cells assessed as increase in GCLM level exposed to 21% oxygen at 2 uM incubated for 7 hrs by Western blot analysis. The following applies: Bone marrow cell. It counts as cell-based.

The target in test [2] is T1, Nuclear factor erythroid 2-related factor 2 (Mus musculus). Description: Induction of NRF2 stabilization in C57BL/6 mouse bone marrow cells exposed to 1% oxygen at 2 uM incubated for 1 hr. The following applies: Bone marrow cell. The class given is cell-based.
Test [3] shares this target. Kind of test: Activation of NRF2 in C57BL/6 mouse bone marrow cells assessed as increase in Hmox1 gene expression exposed to 1% oxygen at 2 uM incubated for 4 hrs by qRT-PCR analysis. The following applies: Bone marrow cell. The class given is cell-based.
For test [4] the target is unchanged. Description: Activation of NRF2 in C57BL/6 mouse bone marrow cells assessed as nuclear translocation of NRF2 exposed to 1% oxygen at 2 uM incubated for 1 hr by Western blot analysis. It counts as cell-based. The following applies: Bone marrow cell.
For test [5] the target is unchanged. Kind of test: Activation of NRF2 in C57BL/6 mouse bone marrow cells assessed as increase in Hmox1 gene expression exposed to 4% oxygen at 2 uM incubated for 4 hrs by qRT-PCR analysis. The class given is cell-based. The following applies: Bone marrow cell.
Test [6] has the same target. Kind of test: Activation of NRF2 in C57BL/6 mouse bone marrow cells assessed as increase in GCLM level exposed to 1% oxygen at 2 uM incubated for 7 hrs by Western blot analysis. It counts as cell-based. The following applies: Bone marrow cell.
For test [7] the target is unchanged. Description: Activation of NRF2 in C57BL/6 mouse bone marrow cells exposed to 21% oxygen at 2 uM incubated for 1 hr. It counts as cell-based. The following applies: Bone marrow cell.
The target is the same in test [8]. Kind of test: Activation of NRF2 in C57BL/6 mouse bone marrow cells assessed as increase in Gclm gene expression exposed to 1% oxygen at 2 uM incubated for 4 hrs by qRT-PCR analysis. The class given is cell-based. The following applies: Bone marrow cell.
Test [9] shares this target. Description: Activation of NRF2 in C57BL/6 mouse bone marrow cells exposed to 4% oxygen at 2 uM incubated for 1 hr. The class given is cell-based. The following applies: Bone marrow cell.
The target is the same in test [10]. Kind of test: Activation of NRF2 in C57BL/6 mouse bone marrow cells assessed as increase in Gclm gene expression exposed to 4% oxygen at 2 uM incubated for 4 hrs by qRT-PCR analysis. It counts as cell-based. The following applies: Bone marrow cell.
Test [11] shares this target. Description: Activation of NRF2 in C57BL/6 mouse bone marrow cells exposed to 1% oxygen at 2 uM incubated for 1 hr. It counts as cell-based. The following applies: Bone marrow cell.
A further test concerns Bone marrow cell. Kind of test: Upregulation of Nfe2l2 gene expression in C57BL/6 mouse bone marrow cells exposed to 4% oxygen at 2 uM incubated for 4 hrs by qRT-PCR analysis. It counts as functional, cell-based.
Test [12] has as its target T1, Nuclear factor erythroid 2-related factor 2 (Mus musculus). Description: Induction of NRF2 stabilization in C57BL/6 mouse bone marrow cells exposed to 21% oxygen at 2 uM incubated for 1 hr. The class given is cell-based. The following applies: Bone marrow cell.
Test [13] has the same target. Kind of test: Induction of NRF2 stabilization in C57BL/6 mouse bone marrow cells exposed to 4% oxygen at 2 uM incubated for 1 hr. It counts as cell-based. The following applies: Bone marrow cell.
For test [14] the target is unchanged. Kind of test: Activation of NRF2 in C57BL/6 mouse bone marrow cells assessed as nuclear translocation of NRF2 exposed to 1% oxygen at 2 uM incubated for 1 hr by IHC analysis. It counts as cell-based. The following applies: Bone marrow cell, filed as activator.
The target is the same in test [15]. Description: Activation of NRF2 in C57BL/6 mouse bone marrow cells assessed as increase in HO-1 level exposed to 21% oxygen at 2 uM incubated for 4 hrs by Western blot analysis. It counts as cell-based. The following applies: Bone marrow cell, filed as activator.
Test [16] shares this target. Description: Activation of NRF2 in C57BL/6 mouse bone marrow cells assessed as fold increase in HO-1 level exposed to hypoxic condition at 2 uM incubated for 4 hrs by Western blot analysis. The class given is cell-based. The following applies: Bone marrow cell, filed as activator.
Test [17] shares this target. Kind of test: Activation of NRF2 in C57BL/6 mouse bone marrow cells assessed as fold increase in HO-1 level exposed to 1% oxygen at 2 uM incubated for 4 hrs by Western blot analysis relative to control. The class given is cell-based. The following applies: Bone marrow cell, filed as activator.

Consider `CCCCCCCCC(CCCCCCCCC(=O)O)[N+](=O)[O-]` (configuration not stated), for which the result in test [1], in test [3], in [4], in test [5], in test [6] and in test [7] was inactive. Also, the result (in [8]; in [9]; in test [10]; in test [11]; in the test with Bone marrow cell) was inactive. Also, the outcome in test [2], in test [12] and in [13] was Active.

For `CCCCCCC=C/C=C(\CCCCCCCC(=O)O)[N+](=O)[O-]`, the outcome in test [2], in [9] (filed as activator), in [11] (filed as activator), in [12] and in test [13] was Active. Besides, the Activity result in test [3] (filed as activator), in [5] (filed as activator), in [8] (filed as activator) and in [10] (filed as activator) was “Active; Compound Exhibited Upregulation That Was Dependent On Oxygen Levels Or Specific Target Genes” in each case. The outcome (in test [7]; in the test with Bone marrow cell) was inactive.

For the molecule `CCCCCCCC/C(=C\CCCCCCCC(=O)O)[N+](=O)[O-]`, the outcome in test [1] (filed as activator), in test [2], in test [3] (filed as activator), in [4] (filed as activator), in test [5] (filed as activator) and in test [6] (filed as activator) was Active. Besides, the result in [8] (filed as activator), in [14], in test [15], in test [10] (filed as activator), in test [11] (filed as activator) and in [12] was Active. For the same molecule, the result in test [13] was Active. In addition, the result (in test [7]; in the test on Bone marrow cell) was inactive.

Take `CCCCC/C=C\C/C(=C\CCCCCCCC(=O)O)[N+](=O)[O-]`: the result in test [1] (filed as activator), in test [2], in test [16], in test [9] (filed as activator), in test [12] and in [13] was Active. The Activity entry in [3] (filed as activator), in test [5] (filed as activator), in test [8] (filed as activator) and in test [10] (filed as activator) was “Active; Compound Exhibited Upregulation That Was Dependent On Oxygen Levels Or Specific Target Genes” throughout. Moreover, the outcome (in test [7]; with Bone marrow cell) was inactive.

For `CCCCCCCC/C=C(\CCCCCCCC(=O)O)[N+](=O)[O-]`, the result in [1] (filed as activator), in [2], in test [3] (filed as activator), in [4] (filed as activator), in test [5] (filed as activator) and in test [6] (filed as activator) was Active. Also, the outcome (in [8] (filed as activator); in test [15]; in test [10] (filed as activator); in test [11] (filed as activator); in the test with Bone marrow cell; in [12]) was Active. Further, the outcome in test [13] was Active. Also, the fold change (FC) in test [17] was found to be 1.8. The result in [7] was inactive.
